# From the Kinase Knowledgebase extract (Sharma et al. 2016)
# Molecular target: PIK3CG (human) (UniProt P48736)
# Assay: Assessment of PIK3CG Kinase Activity
# PIK3CG (human), sequence (P48736 whole entry, looked up): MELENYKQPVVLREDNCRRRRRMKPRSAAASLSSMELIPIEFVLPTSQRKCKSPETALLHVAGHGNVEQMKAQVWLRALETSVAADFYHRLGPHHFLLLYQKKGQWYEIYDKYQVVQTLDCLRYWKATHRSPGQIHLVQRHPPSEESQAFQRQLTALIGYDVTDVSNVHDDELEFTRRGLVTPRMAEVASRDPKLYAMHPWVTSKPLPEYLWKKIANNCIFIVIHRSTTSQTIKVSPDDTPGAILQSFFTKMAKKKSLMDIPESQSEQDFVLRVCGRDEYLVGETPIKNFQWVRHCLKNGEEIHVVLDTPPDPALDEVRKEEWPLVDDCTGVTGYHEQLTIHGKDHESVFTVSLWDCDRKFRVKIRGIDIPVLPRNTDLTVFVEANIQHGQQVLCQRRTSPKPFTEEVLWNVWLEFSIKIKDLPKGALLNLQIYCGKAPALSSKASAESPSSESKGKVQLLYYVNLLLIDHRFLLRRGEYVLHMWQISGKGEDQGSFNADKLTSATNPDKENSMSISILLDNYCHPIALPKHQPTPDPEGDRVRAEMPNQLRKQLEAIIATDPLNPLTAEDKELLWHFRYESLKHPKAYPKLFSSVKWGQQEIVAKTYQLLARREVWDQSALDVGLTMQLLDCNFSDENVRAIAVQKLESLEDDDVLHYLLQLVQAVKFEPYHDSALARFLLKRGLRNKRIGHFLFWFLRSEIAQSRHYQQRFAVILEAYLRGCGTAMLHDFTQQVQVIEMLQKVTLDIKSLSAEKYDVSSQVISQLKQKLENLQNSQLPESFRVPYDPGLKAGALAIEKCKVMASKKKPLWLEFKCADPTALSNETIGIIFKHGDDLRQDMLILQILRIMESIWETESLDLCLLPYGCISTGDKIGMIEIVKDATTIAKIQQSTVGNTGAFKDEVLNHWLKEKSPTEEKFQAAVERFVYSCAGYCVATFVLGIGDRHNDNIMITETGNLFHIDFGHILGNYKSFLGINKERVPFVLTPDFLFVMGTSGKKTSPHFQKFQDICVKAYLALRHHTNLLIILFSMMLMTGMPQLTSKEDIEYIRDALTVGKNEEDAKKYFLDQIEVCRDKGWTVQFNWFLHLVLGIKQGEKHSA
row,IC50 [µM],Compound
1,< 0.8,CN1CCN(CCNC(=O)Nc2nc3c(s2)-c2c(c(-c4cncnc4)nn2-c2ccccc2F)CC3)CC1
2,< 0.8,N[C@@H]1CC[C@@H](NC(=O)Nc2nc3c(s2)-c2c(c(-c4ccccc4)nn2-c2ccccc2Cl)CC3)C1
3,< 0.8,CC(C)(C)COC(=O)N1CCC[C@@H]1CNC(=O)Nc1nc2c(s1)-c1c(c(-c3cncnc3)nn1-c1ccccc1Cl)CC2
4,< 0.8,CC(C)c1cnc(CCNC(=O)Nc2nc3c(s2)-c2c(c(C4CC4)nn2-c2ccccc2Cl)CC3)o1
5,< 0.8,CC(NC(=O)Nc1nc2c(s1)-c1c(c(-c3cccnc3)nn1-c1ccccc1Cl)CC2)c1cccc(NC(=O)OC(C)(C)C)c1 (stereo not given)
6,< 0.8,O=C(Nc1nc2c(s1)-c1c(c(-c3ccccc3)nn1-c1ccccc1Cl)CC2)NC1CCC(NS(=O)(=O)c2ccccc2)CC1 (stereo not given)
7,< 0.8,O=C(NC[C@H]1CCCN1C(=O)N1CCCCC1)Nc1nc2c(s1)-c1c(c(-c3cncnc3)nn1-c1ccccc1Cl)CC2
8,< 0.8,CN(C(=O)OC(C)(C)C)C1CCN(C(=O)Nc2nc3c(s2)-c2c(c(-c4cccnc4)nn2-c2ccccc2Cl)CC3)C1 (stereo not given)
9,< 0.8,Cn1cc(CCNC(=O)Nc2nc3c(s2)-c2c(c(-c4cccnc4)nn2-c2ccccc2Cl)CC3)cn1
10,< 0.8,Cc1nc[nH]c1-c1cccc(CNC(=O)Nc2nc3c(s2)-c2c(c(-c4cccnc4)nn2-c2ccccc2Cl)CC3)c1
11,< 0.8,CN1CCC(n2nc(-c3cccnc3)c3c2-c2sc(NC(=O)NCc4cccc(N5CCNC5=O)c4)nc2CC3)CC1
12,< 0.8,O=C(NCc1ccc2cc[nH]c2c1)Nc1nc2c(s1)-c1c(c(-c3cccnc3)nn1-c1ccccc1Cl)CC2
13,< 0.8,CC(C)(C)OC(=O)NC1CCN(C(=O)Nc2nc3c(s2)-c2c(c(-c4cccnc4)nn2-c2ccccc2Cl)CC3)C1 (stereo not given)
14,< 0.8,CN1CCC(n2nc(-c3cccnc3)c3c2-c2sc(NC(=O)NCc4cccc(C(N)=O)c4)nc2CC3)CC1
15,< 0.8,CN[C@@H](C)C(=O)N1CC[C@H](CNC(=O)Nc2nc3c(s2)-c2c(c(-c4cncnc4)nn2-c2ccccc2Cl)CC3)C1
16,< 0.8,CC(C)(C)OC(=O)NCc1cccc(CNC(=O)Nc2nc3c(s2)-c2c(c(-c4cccnc4)nn2-c2ccccc2Cl)CC3)c1
17,< 0.8,CCc1noc(CCNC(=O)Nc2nc3c(s2)-c2c(c(-c4cncnc4)nn2-c2ccccc2Cl)CC3)n1
18,< 0.8,O=C(Nc1nc2c(s1)-c1c(c(-c3cccnc3)nn1-c1ccccc1Cl)CC2)N1CCCC(c2ccccc2O)C1 (stereo not given)
19,< 0.8,CNC(=O)[C@H](C)NC(=O)Nc1nc2c(s1)-c1c(c(-c3ccccc3)nn1-c1ccccc1Cl)CC2
20,< 0.8,CNC(=O)c1cccc(CNC(=O)Nc2nc3c(s2)-c2c(c(-c4cccnc4)nn2C2CCN(C)CC2)CC3)c1
21,< 0.8,O=C(NCCN1CCCC1=O)Nc1nc2c(s1)-c1c(c(-c3ccccc3)nn1-c1ccccc1Cl)CC2
22,< 0.8,O=C(NCc1nnn[nH]1)Nc1nc2c(s1)-c1c(c(-c3cncnc3)nn1-c1ccccc1Cl)CC2
23,< 0.8,O=C(NC[C@H]1CCNC1)Nc1nc2c(s1)-c1c(c(-c3cncnc3)nn1-c1ccccc1Cl)CC2
24,< 0.8,CC(=O)Nc1ccc(S(=O)(=O)NCCNC(=O)Nc2nc3c(s2)-c2c(c(-c4ccccc4)nn2-c2ccccc2Cl)CC3)cc1
25,< 0.8,CS(=O)(=O)NCCNC(=O)Nc1nc2c(s1)-c1c(c(-c3ccccc3)nn1-c1ccccc1Cl)CC2
26,< 0.8,CCn1cnc(CCNC(=O)Nc2nc3c(s2)-c2c(c(C4CC4)nn2-c2ccccc2Cl)CC3)c1
27,< 0.8,O=C(NCc1ccc(N2CCNC2=O)cc1)Nc1nc2c(s1)-c1c(c(-c3ccccc3)nn1-c1cccc(Cl)c1)CC2

row,IC50 [µM],Compound
1,< 0.8,CN(C)C(=O)CCCNC(=O)Nc1nc2c(s1)-c1c(c(-c3ccccc3)nn1-c1ccccc1Cl)CC2
2,< 0.8,NC(=O)c1cccc(CNC(=O)Nc2nc3c(s2)-c2c(c(C4CC4)nn2-c2ccccc2Cl)CC3)c1
3,< 0.8,CN1CCN(c2ccc(NC(=O)Nc3nc4c(s3)-c3c(c(-c5cncnc5)nn3-c3ccccc3F)CC4)cc2)CC1
4,< 0.8,C[C@@H](NC(=O)Nc1nc2c(s1)-c1c(c(-c3ccccc3)nn1-c1ccccc1Cl)CC2)C(=O)N1CCN(C)CC1
5,< 0.8,CC(C)(C)OC(=O)N1CCC[C@@H]1CNC(=O)Nc1nc2c(s1)-c1c(c(-c3cccnc3)nn1-c1ccccc1Cl)CC2
6,< 0.8,CCc1cnc(CCNC(=O)Nc2nc3c(s2)-c2c(c(-c4cccnc4)nn2C2CCN(C4CCCC4)CC2)CC3)o1
7,< 0.8,CS(=O)(=O)c1cccc(CNC(=O)Nc2nc3c(s2)-c2c(c(-c4cncnc4)nn2-c2ccccc2Cl)CC3)c1
8,< 0.8,CCc1nnc(CCNC(=O)Nc2nc3c(s2)-c2c(c(C4CC4)nn2-c2ccccc2Cl)CC3)o1
9,< 0.8,CN1CCC(n2nc(-c3cncnc3)c3c2-c2sc(NC(=O)NC[C@H]4CCCN4C(=O)OC(C)(C)C)nc2CC3)CC1
10,< 0.8,NC(=O)Nc1nc2c(s1)-c1c(c(-c3cccnc3)nn1-c1ccccc1Cl)CC2
11,< 0.8,CC(C)c1cnc(CCNC(=O)Nc2nc3c(s2)-c2c(c(-c4cncnc4)nn2-c2ccccc2Cl)CC3)o1
12,< 0.8,CN(C)C(=O)Nc1nc2c(s1)-c1c(c(-c3cncnc3)nn1-c1ccccc1F)CC2
13,< 0.8,O=C(NCc1ccc2nc[nH]c2c1)Nc1nc2c(s1)-c1c(c(-c3cncnc3)nn1-c1ccccc1Cl)CC2
14,< 0.8,O=C(NCCNS(=O)(=O)c1cccnc1)Nc1nc2c(s1)-c1c(c(-c3ccccc3)nn1-c1ccccc1Cl)CC2
15,< 0.8,O=C(NCCc1cccnc1)Nc1nc2c(s1)-c1c(c(-c3cccnc3)nn1-c1ccccc1Cl)CC2
16,< 0.8,O=C(Nc1nc2c(s1)-c1c(c(-c3cncnc3)nn1-c1ccccc1Cl)CC2)N1CCC(NC(=O)C(F)(F)F)C1 (stereo not given)
17,< 0.8,O=C(NCc1cccc(C(=O)NC2CCCCC2)c1)Nc1nc2c(s1)-c1c(c(-c3cccnc3)nn1-c1ccccc1Cl)CC2
18,< 0.8,CC(=O)NC1CCN(C(=O)Nc2nc3c(s2)-c2c(c(-c4cccnc4)nn2-c2ccccc2Cl)CC3)C1 (stereo not given)
19,< 0.8,CC(C)(C)OCCNC(=O)Nc1nc2c(s1)-c1c(c(-c3ccccc3)nn1-c1ccccc1Cl)CC2
20,< 0.8,O=C(NC[C@@H]1CCNC1)Nc1nc2c(s1)-c1c(c(-c3cncnc3)nn1-c1ccccc1Cl)CC2
21,< 0.8,CC(C)c1cnc(CCNC(=O)Nc2nc3c(s2)-c2c(c(-c4ccccc4)nn2-c2cccc(Cl)c2)CC3)o1
22,< 0.8,O=C(NC[C@@H]1CCCN1)Nc1nc2c(s1)-c1c(c(-c3cncnc3)nn1-c1ccccc1Cl)CC2
23,< 0.8,CCOCCNC(=O)Nc1nc2c(s1)-c1c(c(-c3ccccc3)nn1-c1ccccc1Cl)CC2
24,< 0.8,CCn1cnc(CCNC(=O)Nc2nc3c(s2)-c2c(c(-c4ccccc4)nn2-c2ccccc2Cl)CC3)c1
25,< 0.8,O=C(NCc1cccc(N2CCNC2=O)c1)Nc1nc2c(s1)-c1c(c(-c3cccnc3)nn1C1CCN(C3CCCC3)CC1)CC2
26,< 0.8,CCOC(=O)N1CC[C@H](CNC(=O)Nc2nc3c(s2)-c2c(c(-c4cncnc4)nn2-c2ccccc2Cl)CC3)C1
27,< 0.8,CCc1nnc(CCNC(=O)Nc2nc3c(s2)-c2c(c(-c4cncnc4)nn2-c2ccccc2Cl)CC3)o1

row,IC50 [µM],Compound
1,< 0.8,CCn1cnc(CCNC(=O)Nc2nc3c(s2)-c2c(c(-c4cccnc4)nn2C2CCN(C4CCCC4)CC2)CC3)c1
2,< 0.8,O=C(NCCCn1ccnc1)Nc1nc2c(s1)-c1c(c(-c3cncnc3)nn1-c1ccccc1Cl)CC2
3,< 0.8,O=C(NC[C@@H]1CCCN1)Nc1nc2c(s1)-c1c(c(-c3cncnc3)nn1-c1ccccc1F)CC2
4,< 0.8,O=C(NCC1CCCN(c2ncccn2)C1)Nc1nc2c(s1)-c1c(c(-c3cccnc3)nn1-c1ccccc1Cl)CC2 (stereo not given)
5,< 0.8,O=C(NCc1ncc[nH]1)Nc1nc2c(s1)-c1c(c(-c3cccnc3)nn1-c1ccccc1Cl)CC2
6,< 0.8,CCN(CC)CCNC(=O)Nc1nc2c(s1)-c1c(c(-c3cncnc3)nn1-c1ccccc1Cl)CC2
7,< 0.8,CC(C)(C)OC(=O)N1CC[C@@H](CNC(=O)Nc2nc3c(s2)-c2c(c(-c4cncnc4)nn2-c2ccccc2Cl)CC3)C1
8,< 0.8,CC(C)(CNc1ncccn1)NC(=O)Nc1nc2c(s1)-c1c(c(-c3cccnc3)nn1-c1ccccc1Cl)CC2
9,< 0.8,CCn1cnc(CCNC(=O)Nc2nc3c(s2)-c2c(c(-c4ccccc4)nn2-c2cccc(Cl)c2)CC3)c1
10,< 0.8,CC(C)(C)OC(=O)CCNC(=O)Nc1nc2c(s1)-c1c(c(-c3ccccc3)nn1-c1ccccc1Cl)CC2
11,< 0.8,CC(C)(C)OC(=O)N1CCC[C@H]1CNC(=O)Nc1nc2c(s1)-c1c(c(-c3cccnc3)nn1-c1ccccc1Cl)CC2
12,< 0.8,O=C1CCC(CNC(=O)Nc2nc3c(s2)-c2c(c(-c4cccnc4)nn2-c2ccccc2Cl)CC3)N1 (stereo not given)
13,< 0.8,CC(C)(C)OC(=O)NCCNC(=O)Nc1nc2c(s1)-c1c(c(-c3ccccc3)nn1-c1ccccc1Cl)CC2
14,< 0.8,O=C(Nc1nc2c(s1)-c1c(c(-c3ccccc3)nn1-c1ccccc1Cl)CC2)NC1CCN(S(=O)(=O)c2ccccc2)CC1
15,< 0.8,COc1ccc(CCNC(=O)Nc2nc3c(s2)-c2c(c(-c4cncnc4)nn2-c2ccccc2Cl)CC3)cc1OC
16,< 0.8,O=C(NCCNS(=O)(=O)C(F)(F)F)Nc1nc2c(s1)-c1c(c(-c3ccccc3)nn1-c1ccccc1Cl)CC2
17,< 0.8,CC(C)(C)OC(=O)N1CCCCC1CNC(=O)Nc1nc2c(s1)-c1c(c(-c3cccnc3)nn1-c1ccccc1Cl)CC2 (stereo not given)
18,< 0.8,CN(C)C(=O)CNC(=O)Nc1nc2c(s1)-c1c(c(C3CC3)nn1-c1ccccc1Cl)CC2
19,< 0.8,CCc1cnc(CCNC(=O)Nc2nc3c(s2)-c2c(c(-c4cccnc4)nn2C2CCN(C)CC2)CC3)o1
20,< 0.8,CC(C)(C)OC(=O)N1CCCC(CNC(=O)Nc2nc3c(s2)-c2c(c(-c4cncnc4)nn2-c2ccccc2Cl)CC3)C1 (stereo not given)
21,< 0.8,O=C(NC[C@H]1CCCN1)Nc1nc2c(s1)-c1c(c(-c3cncnc3)nn1-c1ccccc1Cl)CC2
22,< 0.8,CC(C)(C)OC(=O)NCC1CCCN1C(=O)Nc1nc2c(s1)-c1c(c(-c3cccnc3)nn1-c1ccccc1Cl)CC2 (stereo not given)
23,< 0.8,COC(=O)CCNC(=O)Nc1nc2c(s1)-c1c(c(-c3cncnc3)nn1-c1ccccc1Cl)CC2
24,< 0.8,CN1CCN(Cc2ccc(NC(=O)Nc3nc4c(s3)-c3c(c(-c5cncnc5)nn3-c3ccccc3F)CC4)cc2)CC1
25,< 0.8,CC(C)(C)OC(=O)CNC(=O)Nc1nc2c(s1)-c1c(c(-c3cccnc3)nn1C1CCN(C3CCCC3)CC1)CC2
26,< 0.8,CC(C)CNC(=O)CCNC(=O)Nc1nc2c(s1)-c1c(c(-c3cncnc3)nn1-c1ccccc1Cl)CC2
